From the supplement of paper PMC13380429

What was measured:
[1] = test system: A549-ACE2 infected with SARS-CoV-2; test: cell count relative to DMSO; higher = less toxic; conditions: 24 h
Caco-2 [2] = test: cell viability relative to DMSO; higher = less toxic; conditions: 72 h
Calu-3 [3] = test: as above; conditions: 72 h
HepG2 [4] = test: as above; conditions: 72 h
U2OS [5] = test: as above; conditions: 72 h
Vero E6 [6] = test: as above; conditions: 72 h
[7] = test system: A549-ACE2 infected with SARS-CoV-2; test: SARS-CoV-2 infection rate relative to DMSO; higher = more infection; conditions: 24 h
A549-ACE2 [8] = test: phospholipidosis EC50; higher = less potent phospholipidosis inducer
A549-ACE2 [9] = test: drug-induced phospholipidosis relative to tamoxifen; higher = more phospholipidosis
[10] = test system: A549-ACE2 infected with SARS-CoV-2; test: morphology score (similarity to uninfected cells); higher = more like uninfected cells; conditions: 24 h
Caco-2 [11] = test: relative viability EC50 (midpoint between 100% and the lowest measured viability); higher = less toxic; conditions: 72 h
Calu-3 [12] = test: as above; conditions: 72 h
HepG2 [13] = test: as above; conditions: 72 h
U2OS [14] = test: as above; conditions: 72 h
Caco-2 [15] = test: drug sensitivity score (DSS) for viability; higher = more toxic; extreme values may be limits of the assay; conditions: 72 h
Calu-3 [16] = test: as above; conditions: 72 h
HepG2 [17] = test: as above; conditions: 72 h
U2OS [18] = test: as above; conditions: 72 h
Vero E6 [19] = test: as above; conditions: 72 h

CCn1c2ccccc2c2cc(Nc3ccnc(NCCCN4CCOCC4)n3)ccc21 [EHop-016]
Conditions | SARS-CoV-2 infection rate [%] | cell count [%] | cell viability [%] | morphology score | phospholipidosis EC50 [µM]
A549-ACE2 [8], 24 h | – | – | – | – | 0.895
A549-ACE2 [8], 48 h | – | – | – | – | 1.39
A549-ACE2 [8], 72 h | – | – | – | – | 3.13
Caco-2 [2], 1 nM | – | – | 91.4 | – | –
Caco-2 [2], 10 nM | – | – | 93.5 | – | –
Caco-2 [2], 100 nM | – | – | 97.4 | – | –
Caco-2 [2], 1000 nM | – | – | 85.5 | – | –
Caco-2 [2], 10000 nM | – | – | 31.2 | – | –
Calu-3 [3], 1 nM | – | – | 95 | – | –
Calu-3 [3], 10 nM | – | – | 98 | – | –
Calu-3 [3], 100 nM | – | – | 100 | – | –
Calu-3 [3], 1000 nM | – | – | 99 | – | –
Calu-3 [3], 10000 nM | – | – | 6.7 | – | –
HepG2 [4], 1 nM | – | – | 103 | – | –
HepG2 [4], 10 nM | – | – | 104 | – | –
HepG2 [4], 100 nM | – | – | 98.5 | – | –
HepG2 [4], 1000 nM | – | – | 98 | – | –
HepG2 [4], 10000 nM | – | – | 28.1 | – | –
U2OS [5], 1 nM | – | – | 100 | – | –
U2OS [5], 10 nM | – | – | 94.1 | – | –
U2OS [5], 100 nM | – | – | 101 | – | –
U2OS [5], 1000 nM | – | – | 91 | – | –
U2OS [5], 10000 nM | – | – | 34.6 | – | –
Vero E6 [6], 1 nM | – | – | 102 | – | –
Vero E6 [6], 10 nM | – | – | 97.2 | – | –
Vero E6 [6], 100 nM | – | – | 88.9 | – | –
Vero E6 [6], 1000 nM | – | – | 94.3 | – | –
Vero E6 [6], 10000 nM | – | – | 64.3 | – | –
[1], 0.1 µM | – | 93 | – | – | –
[1], 0.3 µM | – | 100 | – | – | –
[1], 1 µM | – | 103 | – | – | –
[1], 3 µM | – | 118 | – | – | –
[7], 0.1 µM | 98 | – | – | – | –
[7], 0.3 µM | 97 | – | – | – | –
[7], 1 µM | 70 | – | – | – | –
[7], 3 µM | 23 | – | – | – | –
[10], 0.1 µM | – | – | – | -0.12 | –
[10], 0.3 µM | – | – | – | -0.03 | –
[10], 1 µM | – | – | – | 0.46 | –
[10], 3 µM | – | – | – | 0.79 | –

drug-induced phospholipidosis [%], A549-ACE2 [9]
Conditions | 0.3 µM | 0.833333 µM | 3.33333 µM | 6.66667 µM | 10 µM | 30 µM
24 h | 3.51 | 16.7 | 47 | 47.4 | 52.6 | 11.5
48 h | 4.02 | 8.22 | 56.9 | 63.9 | 72.1 | 40.9
72 h | 3.76 | 2.65 | 48.2 | 69.6 | 81.3 | –

Conditions | drug sensitivity score | relative viability EC50 [µM]
Caco-2 [11] | – | 1.69
Caco-2 [15] | 6.1 | –
Calu-3 [12] | – | 3.09
Calu-3 [16] | 5.3 | –
HepG2 [13] | – | 2.96
HepG2 [17] | 4.2 | –
U2OS [14] | – | 2.06
U2OS [18] | 5.1 | –
Vero E6 [19] | 2.6 | –

O=C(c1ccc(-c2ccc(Cl)cc2)o1)N(Cc1ccccn1)c1ccc(N2CCNCC2)cc1 [MK2-IN-1]
Conditions | SARS-CoV-2 infection rate [%] | cell count [%] | cell viability [%] | morphology score | phospholipidosis EC50 [µM]
A549-ACE2 [8], 24 h | – | – | – | – | 3.59
A549-ACE2 [8], 48 h | – | – | – | – | 4.69
A549-ACE2 [8], 72 h | – | – | – | – | 4.85
Caco-2 [2], 1 nM | – | – | 104 | – | –
Caco-2 [2], 10 nM | – | – | 111 | – | –
Caco-2 [2], 100 nM | – | – | 100 | – | –
Caco-2 [2], 1000 nM | – | – | 131 | – | –
Caco-2 [2], 10000 nM | – | – | 52.9 | – | –
Calu-3 [3], 1 nM | – | – | 92.2 | – | –
Calu-3 [3], 10 nM | – | – | 112 | – | –
Calu-3 [3], 100 nM | – | – | 93.9 | – | –
Calu-3 [3], 1000 nM | – | – | 116 | – | –
Calu-3 [3], 10000 nM | – | – | 54.9 | – | –
HepG2 [4], 1 nM | – | – | 102 | – | –
HepG2 [4], 10 nM | – | – | 109 | – | –
HepG2 [4], 100 nM | – | – | 115 | – | –
HepG2 [4], 1000 nM | – | – | 97.9 | – | –
HepG2 [4], 10000 nM | – | – | 68.2 | – | –
U2OS [5], 1 nM | – | – | 97.9 | – | –
U2OS [5], 10 nM | – | – | 103 | – | –
U2OS [5], 100 nM | – | – | 95.9 | – | –
U2OS [5], 1000 nM | – | – | 104 | – | –
U2OS [5], 10000 nM | – | – | 83.2 | – | –
Vero E6 [6], 1 nM | – | – | 96.5 | – | –
Vero E6 [6], 10 nM | – | – | 94 | – | –
Vero E6 [6], 100 nM | – | – | 98.1 | – | –
Vero E6 [6], 1000 nM | – | – | 95.7 | – | –
Vero E6 [6], 10000 nM | – | – | 67.6 | – | –
[1], 0.1 µM | – | 100 | – | – | –
[1], 0.3 µM | – | 102 | – | – | –
[1], 1 µM | – | 107 | – | – | –
[1], 3 µM | – | 117 | – | – | –
[7], 0.1 µM | 97 | – | – | – | –
[7], 0.3 µM | 88 | – | – | – | –
[7], 1 µM | 77 | – | – | – | –
[7], 3 µM | 29 | – | – | – | –
[10], 0.1 µM | – | – | – | 0.14 | –
[10], 0.3 µM | – | – | – | 0.26 | –
[10], 1 µM | – | – | – | 0.34 | –
[10], 3 µM | – | – | – | 0.75 | –

drug-induced phospholipidosis [%], A549-ACE2 [9]
Conditions | 0.3 µM | 0.833333 µM | 3.33333 µM | 6.66667 µM | 10 µM | 30 µM
24 h | 3.45 | 9.1 | 31.8 | 109 | 102 | 96.8
48 h | 6.99 | 4.08 | 23 | 127 | 127 | 153
72 h | 5.37 | -1.19 | 20.6 | 118 | 139 | –

Conditions | drug sensitivity score | relative viability EC50 [µM]
Caco-2 [15] | 1.5 | –
Calu-3 [16] | 1.7 | –
HepG2 [17] | 1.7 | –
U2OS [14] | – | > 10
U2OS [18] | 0.2 | –
Vero E6 [19] | 2.2 | –
